Holding throughout (assay): SelectScreen Z'LYTE kinase profiling
Common to all, as to type: biochemical
Holding throughout (conditions): ATP at apparent KM

One assay has as its target T1, PRKG2 (PKG2) (Homo sapiens, UniProt Q13237).
T1 sequence (Q13237 1-762): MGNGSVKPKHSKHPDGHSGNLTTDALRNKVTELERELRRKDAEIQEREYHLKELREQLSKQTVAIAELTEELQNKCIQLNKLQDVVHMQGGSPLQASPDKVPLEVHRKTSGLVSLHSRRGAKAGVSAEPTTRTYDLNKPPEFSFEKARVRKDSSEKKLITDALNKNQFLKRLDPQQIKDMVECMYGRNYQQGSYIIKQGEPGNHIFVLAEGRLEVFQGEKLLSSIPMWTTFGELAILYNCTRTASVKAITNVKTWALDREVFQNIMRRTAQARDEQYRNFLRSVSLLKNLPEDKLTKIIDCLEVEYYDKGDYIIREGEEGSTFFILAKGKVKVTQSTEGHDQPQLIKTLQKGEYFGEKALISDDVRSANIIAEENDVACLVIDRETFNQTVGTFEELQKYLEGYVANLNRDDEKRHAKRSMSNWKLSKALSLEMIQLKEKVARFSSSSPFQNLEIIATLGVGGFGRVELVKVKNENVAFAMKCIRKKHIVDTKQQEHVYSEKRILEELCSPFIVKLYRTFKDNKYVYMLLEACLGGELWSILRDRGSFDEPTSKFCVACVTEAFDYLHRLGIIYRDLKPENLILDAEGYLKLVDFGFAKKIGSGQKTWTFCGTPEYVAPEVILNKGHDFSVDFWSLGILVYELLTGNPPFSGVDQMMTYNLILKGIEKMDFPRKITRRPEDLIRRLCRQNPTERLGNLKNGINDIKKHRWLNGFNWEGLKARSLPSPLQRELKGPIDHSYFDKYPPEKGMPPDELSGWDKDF

In the next assay the target is T2, PRKCI (PKC iota) (Homo sapiens, UniProt P41743).
T2 sequence (P41743 1-596): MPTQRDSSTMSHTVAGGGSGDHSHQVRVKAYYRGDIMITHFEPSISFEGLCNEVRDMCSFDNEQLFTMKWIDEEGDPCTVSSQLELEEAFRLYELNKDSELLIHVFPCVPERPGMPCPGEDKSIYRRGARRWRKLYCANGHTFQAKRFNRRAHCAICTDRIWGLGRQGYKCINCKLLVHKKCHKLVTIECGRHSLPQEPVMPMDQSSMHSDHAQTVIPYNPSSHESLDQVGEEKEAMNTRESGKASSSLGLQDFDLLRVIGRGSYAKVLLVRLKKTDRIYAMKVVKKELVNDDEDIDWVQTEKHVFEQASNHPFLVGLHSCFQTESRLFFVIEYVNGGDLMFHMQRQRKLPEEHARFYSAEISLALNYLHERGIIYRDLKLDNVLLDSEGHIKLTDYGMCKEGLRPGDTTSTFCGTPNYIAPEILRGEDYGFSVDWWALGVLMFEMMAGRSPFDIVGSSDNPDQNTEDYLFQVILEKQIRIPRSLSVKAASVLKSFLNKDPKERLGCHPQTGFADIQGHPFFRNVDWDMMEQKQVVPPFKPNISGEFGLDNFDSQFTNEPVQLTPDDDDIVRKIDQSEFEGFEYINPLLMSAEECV

In the next assay the target is T3, PRKG1 (Homo sapiens, UniProt Q13976).
T3 sequence (Q13976 1-671): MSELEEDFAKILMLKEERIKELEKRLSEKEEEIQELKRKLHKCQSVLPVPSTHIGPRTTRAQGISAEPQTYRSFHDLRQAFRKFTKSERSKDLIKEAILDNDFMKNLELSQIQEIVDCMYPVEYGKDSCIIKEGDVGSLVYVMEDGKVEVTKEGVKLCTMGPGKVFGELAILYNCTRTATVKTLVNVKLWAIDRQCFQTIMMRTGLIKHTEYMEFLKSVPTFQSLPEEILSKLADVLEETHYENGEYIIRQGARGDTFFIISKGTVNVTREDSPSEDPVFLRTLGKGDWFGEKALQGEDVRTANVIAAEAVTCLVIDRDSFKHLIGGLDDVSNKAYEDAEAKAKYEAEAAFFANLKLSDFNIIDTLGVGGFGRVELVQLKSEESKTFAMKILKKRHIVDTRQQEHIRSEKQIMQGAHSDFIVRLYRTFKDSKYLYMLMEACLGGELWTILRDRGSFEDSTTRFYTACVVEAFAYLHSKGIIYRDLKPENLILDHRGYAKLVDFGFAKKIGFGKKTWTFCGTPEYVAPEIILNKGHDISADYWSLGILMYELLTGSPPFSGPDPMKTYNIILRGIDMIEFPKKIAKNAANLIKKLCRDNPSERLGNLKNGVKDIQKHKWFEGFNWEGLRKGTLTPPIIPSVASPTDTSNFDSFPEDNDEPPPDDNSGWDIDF

For another assay, the target named is ABL1 (Homo sapiens, UniProt P00519).
Another assay deals with T4, PRKD2 (PKD2) (Homo sapiens, UniProt Q9BZL6).
T4 sequence (Q9BZL6 1-878): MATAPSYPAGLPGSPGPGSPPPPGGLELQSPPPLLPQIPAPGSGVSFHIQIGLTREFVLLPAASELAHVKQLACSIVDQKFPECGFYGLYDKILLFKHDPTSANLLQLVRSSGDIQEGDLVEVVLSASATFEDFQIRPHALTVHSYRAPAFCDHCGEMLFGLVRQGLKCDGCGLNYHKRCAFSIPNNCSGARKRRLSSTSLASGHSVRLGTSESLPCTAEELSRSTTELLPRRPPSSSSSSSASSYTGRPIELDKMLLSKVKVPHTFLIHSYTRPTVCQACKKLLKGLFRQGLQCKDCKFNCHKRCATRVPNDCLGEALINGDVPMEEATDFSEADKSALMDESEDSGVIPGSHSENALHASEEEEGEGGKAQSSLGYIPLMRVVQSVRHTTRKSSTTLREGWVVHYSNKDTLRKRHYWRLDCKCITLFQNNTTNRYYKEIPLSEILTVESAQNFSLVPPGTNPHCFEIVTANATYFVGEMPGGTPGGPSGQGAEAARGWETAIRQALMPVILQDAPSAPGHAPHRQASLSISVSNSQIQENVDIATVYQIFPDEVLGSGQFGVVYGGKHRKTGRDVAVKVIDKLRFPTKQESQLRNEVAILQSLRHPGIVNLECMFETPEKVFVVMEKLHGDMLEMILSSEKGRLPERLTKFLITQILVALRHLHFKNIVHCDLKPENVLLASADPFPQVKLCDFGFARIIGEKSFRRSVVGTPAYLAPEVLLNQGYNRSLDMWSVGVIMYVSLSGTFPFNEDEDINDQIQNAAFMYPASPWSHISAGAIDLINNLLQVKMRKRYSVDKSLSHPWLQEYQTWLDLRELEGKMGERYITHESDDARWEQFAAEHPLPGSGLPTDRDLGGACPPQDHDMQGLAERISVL

In a further assay the target is MELK (Homo sapiens, UniProt Q14680).

SMILES strings stand for the structures.

Chain of ABL1 (P00519 whole entry): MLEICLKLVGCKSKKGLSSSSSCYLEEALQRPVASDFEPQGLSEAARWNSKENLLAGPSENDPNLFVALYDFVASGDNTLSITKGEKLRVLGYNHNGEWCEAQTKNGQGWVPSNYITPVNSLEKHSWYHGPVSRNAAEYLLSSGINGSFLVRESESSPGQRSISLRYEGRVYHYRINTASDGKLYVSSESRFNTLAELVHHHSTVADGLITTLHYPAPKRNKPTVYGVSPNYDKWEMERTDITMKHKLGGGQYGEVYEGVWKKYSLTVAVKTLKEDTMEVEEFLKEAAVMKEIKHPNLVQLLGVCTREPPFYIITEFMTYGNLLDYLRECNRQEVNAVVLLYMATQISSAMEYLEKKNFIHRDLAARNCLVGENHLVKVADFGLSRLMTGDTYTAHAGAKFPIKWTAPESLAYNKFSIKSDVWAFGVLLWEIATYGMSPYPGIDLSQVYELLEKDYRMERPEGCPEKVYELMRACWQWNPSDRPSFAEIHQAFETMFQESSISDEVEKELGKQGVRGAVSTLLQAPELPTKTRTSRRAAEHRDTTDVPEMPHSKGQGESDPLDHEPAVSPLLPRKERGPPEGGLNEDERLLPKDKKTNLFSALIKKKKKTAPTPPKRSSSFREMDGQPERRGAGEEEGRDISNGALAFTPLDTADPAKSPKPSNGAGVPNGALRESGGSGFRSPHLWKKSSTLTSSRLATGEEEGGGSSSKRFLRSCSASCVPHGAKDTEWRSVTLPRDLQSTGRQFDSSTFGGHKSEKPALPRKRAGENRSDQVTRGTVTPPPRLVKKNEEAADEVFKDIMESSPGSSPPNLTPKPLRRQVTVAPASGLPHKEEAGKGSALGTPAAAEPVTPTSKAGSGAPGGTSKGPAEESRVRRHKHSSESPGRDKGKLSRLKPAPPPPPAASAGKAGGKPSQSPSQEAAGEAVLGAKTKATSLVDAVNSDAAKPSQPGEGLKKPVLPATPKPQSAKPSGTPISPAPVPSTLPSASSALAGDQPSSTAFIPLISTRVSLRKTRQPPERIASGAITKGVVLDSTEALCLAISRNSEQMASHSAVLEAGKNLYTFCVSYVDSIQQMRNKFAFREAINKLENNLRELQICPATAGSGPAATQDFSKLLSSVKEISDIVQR
Chain of MELK (Q14680 whole entry): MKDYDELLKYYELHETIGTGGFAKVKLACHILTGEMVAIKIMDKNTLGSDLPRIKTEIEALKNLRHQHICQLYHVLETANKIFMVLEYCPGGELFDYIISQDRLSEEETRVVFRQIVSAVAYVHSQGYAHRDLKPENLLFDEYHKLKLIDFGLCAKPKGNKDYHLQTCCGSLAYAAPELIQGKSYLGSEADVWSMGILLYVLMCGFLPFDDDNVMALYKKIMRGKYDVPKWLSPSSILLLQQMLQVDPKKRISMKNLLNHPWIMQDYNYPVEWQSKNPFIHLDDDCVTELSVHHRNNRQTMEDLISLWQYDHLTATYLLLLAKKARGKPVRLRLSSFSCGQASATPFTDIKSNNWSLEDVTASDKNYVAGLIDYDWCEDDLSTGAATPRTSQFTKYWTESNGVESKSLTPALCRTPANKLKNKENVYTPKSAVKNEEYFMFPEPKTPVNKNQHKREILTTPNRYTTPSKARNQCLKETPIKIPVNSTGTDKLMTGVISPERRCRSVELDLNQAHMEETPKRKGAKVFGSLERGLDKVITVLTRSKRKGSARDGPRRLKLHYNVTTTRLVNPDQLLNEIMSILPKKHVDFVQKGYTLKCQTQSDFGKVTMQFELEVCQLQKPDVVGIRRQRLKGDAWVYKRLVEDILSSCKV
Method for ABL1: (§1) protein kinases at a compound concentration of 1 µM. Measurements were performed in duplicates
(§2) and at the particular apparent ATP KM of each individual kinase employing the activity based Z’LYTE®
(§3) kinase assay of the SelectScreen® Kinase Profiling Services (ThermoFisher Scientific).
(§4) kinases at a compound concentration of 1 µM. Measurements were performed in duplicates and at
(§5) the particular apparent ATP KM of each individual kinase employing the activity based Z’LYTE® kinase
(§6) assay of the SelectScreen® Kinase Profiling Services (ThermoFisher Scientific).
Method for MELK: as §1, §2, §3, §4, §5, §6
Method for PRKCI (PKC iota): as §1, §2, §3, §4, §5, §6
Method for PRKD2 (PKD2): as §1, §2, §3, §4, §5, §6
Method for PRKG2 (PKG2): as §1, §2, §3, §4, §5, §6

With `C=CC(=O)Nc1ccc2c(c1)n(C1CCN(Cc3ccc(-c4nc5cc[nH]c(=O)c5cc4-c4ccccc4)cc3)CC1)c(=O)n2C` [24b], the inhibition at 1 µM on PRKG2 (PKG2) was -4%; at PRKCI (PKC iota), 3%; on PRKG1, 6%; on ABL1, 2%; on PRKD2 (PKD2) it was 3%; on MELK, 48%.

For `C=CC(=O)Nc1cccc(C(=O)NC2CCN(Cc3ccc(-c4nc5cc[nH]c(=O)c5cc4-c4ccccc4)cc3)CC2)c1` [30b], the inhibition at 1 µM at PRKG2 (PKG2) is 5%; on PRKCI (PKC iota), -9%; on PRKG1 it was 10%; on ABL1 it was 3%; on PRKD2 (PKD2), 4%; at MELK it was 52%.

Turning to `C=CC(=O)Nc1cc(NC(=O)NC2CCN(Cc3ccc(-c4nc5cc[nH]c(=O)c5cc4-c4ccccc4)cc3)CC2)ccc1Cl` [compound 27], the inhibition at 1 µM at PRKG2 (PKG2) was -4%; on PRKCI (PKC iota), 5%; on PRKG1 it was 11%; at ABL1, 3%; on PRKD2 (PKD2), 5%; at MELK it was 83%.

The term inhibition denotes the relative decrease from the control value, in per cent.
